Laboratory results from ChEMBL document CHEMBL1821670, “Synthesis and in vitro biological evaluation of carbonyl group-containing analogues for σ1 receptors” (J Med Chem, 2011).

What was measured:
[1] = Displacement of [3H]-DTG from sigma 2 receptor in rat liver membrane homogenates after 2 hrs by liquid scintillation counting; type: cell membranes
[2] = molecular target: Sigma non-opioid intracellular receptor 1 (Cavia porcellus, UniProt Q60492); test: Displacement of (+)-[3H]pentazocine from sigma 1 receptor in guinea pig brain membrane homogenates after 90 mins by liquid scintillation counting; type: cell membranes
Chain of Sigma non-opioid intracellular receptor 1 (Q60492 whole entry): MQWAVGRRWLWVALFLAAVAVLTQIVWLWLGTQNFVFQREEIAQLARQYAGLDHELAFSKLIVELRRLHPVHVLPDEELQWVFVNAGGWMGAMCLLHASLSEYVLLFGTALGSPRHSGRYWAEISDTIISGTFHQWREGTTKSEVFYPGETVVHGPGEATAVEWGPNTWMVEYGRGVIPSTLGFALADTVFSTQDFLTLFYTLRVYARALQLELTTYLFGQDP

[3] = molecular target: T1, Vesicular acetylcholine transporter (Homo sapiens, UniProt Q16572); test: Displacement of (-)-[3H]vesamicol from human VAChT expressed in rat PC12 A123.7 cells after 20 hrs; type: cell-based, PC-12
T1 sequence (Q16572 whole entry): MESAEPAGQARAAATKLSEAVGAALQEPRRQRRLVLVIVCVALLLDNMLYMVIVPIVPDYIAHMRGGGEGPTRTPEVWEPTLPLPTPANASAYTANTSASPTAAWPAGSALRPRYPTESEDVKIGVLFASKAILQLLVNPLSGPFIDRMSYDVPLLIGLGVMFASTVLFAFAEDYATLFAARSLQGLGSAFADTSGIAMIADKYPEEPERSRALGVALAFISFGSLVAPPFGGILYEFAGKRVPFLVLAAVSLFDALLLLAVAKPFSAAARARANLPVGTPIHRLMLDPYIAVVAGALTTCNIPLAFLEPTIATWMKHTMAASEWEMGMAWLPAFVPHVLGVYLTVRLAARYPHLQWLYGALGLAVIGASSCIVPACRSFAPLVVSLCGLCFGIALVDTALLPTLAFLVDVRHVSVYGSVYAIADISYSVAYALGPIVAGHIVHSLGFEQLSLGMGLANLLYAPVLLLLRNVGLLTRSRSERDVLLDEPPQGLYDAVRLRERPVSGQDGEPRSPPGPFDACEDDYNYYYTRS

[4] = Selectivity ratio of Ki for sigma 1 receptor in guinea pig brain membrane homogenates to Ki for sigma 2 receptor in rat liver membrane homogenates; type: cell membranes
[5] = Selectivity ratio of Ki for sigma 1 receptor in guinea pig brain membrane homogenates to Ki for human VAChT; type: cell membranes

| Structure (SMILES) | Ki [1] | Ki [2] | Ki [3] | Ratio Ki [4] | Ratio Ki [5] |
| --- | --- | --- | --- | --- | --- |
| O[C@@H]1CCN(Cc2ccc(F)cc2)C[C@H]1N1CCC(c2ccccc2)CC1 | 35.9 nM |  |  |  |  |
| Cc1ccc(C2CCN([C@@H]3CCCC[C@H]3O)CC2)cc1 | 42.4 nM | 8.1 nM | 22.9 nM |  |  |
| COc1ccc(CCN2CCN(CCCc3ccccc3)CC2)cc1OC | 242 nM |  |  |  |  |
| O[C@@H]1CCN(Cc2cccc(I)c2)C[C@H]1N1CCC(c2ccccc2)CC1 | 190 nM | 92 nM |  |  |  |
| O=C(c1ccc(F)cc1)C1CCN([C@H]2CCN(C(=O)c3ccc(F)cc3)C[C@@H]2O)CC1 (relative stereo) | 8640 nM |  |  | 2.7 | 1.1 |
| O=C(c1ccc(F)cc1)C1CCN([C@H]2CN(Cc3cccnc3)CC[C@@H]2O)CC1 (relative stereo) | 13000 nM |  |  | 11 | 0.2 |
| COc1ccc(C(=O)C2CCN([C@H]3CN(Cc4ccccc4)CC[C@@H]3O)CC2)cc1 (relative stereo) | 8540 nM |  |  | 41 | 0.17 |
| COc1ccc(C(=O)C2CCN([C@H]3CN(Cc4cccnc4)CC[C@@H]3O)CC2)cc1 (relative stereo) | 17100 nM |  |  |  |  |
| O[C@@H]1CCCC[C@H]1N1CCC(c2ccccc2)CC1 [VESAMICOL] | 346 nM | 73.8 nM |  |  |  |
